Reference: publication PMC6695665, “Interrogating the Essential Bacterial Cell Division Protein FtsQ with Fragments Using Target Immobilized NMR Screening (TINS)” (International Journal of Molecular Sciences, 2019)
Read-outs that look alike come from different tables or passages of the source.

Experiments:
Assay in all cases: 1H, […]-HSQC NMR chemical shift perturbation; TINS primary screen (T/R […])
Assay type in all cases: binding
FtsQ [1] = biological target: T1, FtsQ (Escherichia coli, UniProt P06136)
T1 construct: soluble periplasmic domain (FtsQp), 15N-labeled, N-terminal tags cleaved by TEV
T1 sequence (P06136 50-276): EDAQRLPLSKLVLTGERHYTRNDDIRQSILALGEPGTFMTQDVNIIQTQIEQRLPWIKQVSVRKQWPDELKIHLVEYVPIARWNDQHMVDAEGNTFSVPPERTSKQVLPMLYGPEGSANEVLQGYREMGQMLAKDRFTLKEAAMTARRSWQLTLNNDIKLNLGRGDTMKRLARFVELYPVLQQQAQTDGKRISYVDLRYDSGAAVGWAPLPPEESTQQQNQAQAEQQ

FtsQ [2] = biological target: T1, FtsQ; remark: listed apart in the source
FtsQ [3] = biological target: T1, FtsQ; remark: listed apart in the source

N[C@@H](Cc1cn(Cc2ccccc2)cn1)C(=O)O [compound 1]
Kd (FtsQ [1]): > 1 mM

C=C1[C@H](O)C[C@@H]2C[C@H]1C2(C)C [compound 2]
Kd (FtsQ [2]): > 1 mM

CN(C)c1nc(=O)n(C2CCCCC2)c(=O)n1C [compound 3]
Kd (FtsQ [3]): > 1 mM
